Experimental findings from article PMC3248991 (2011) are described below.

The target in the experiment is HDM2 (MDM2) (Homo sapiens, UniProt Q00987). Kind of experiment: HTR-FRET competition assay of biotin-p53 / GST-HDM2 binding.
Sequence of HDM2 (MDM2) (Q00987 whole entry): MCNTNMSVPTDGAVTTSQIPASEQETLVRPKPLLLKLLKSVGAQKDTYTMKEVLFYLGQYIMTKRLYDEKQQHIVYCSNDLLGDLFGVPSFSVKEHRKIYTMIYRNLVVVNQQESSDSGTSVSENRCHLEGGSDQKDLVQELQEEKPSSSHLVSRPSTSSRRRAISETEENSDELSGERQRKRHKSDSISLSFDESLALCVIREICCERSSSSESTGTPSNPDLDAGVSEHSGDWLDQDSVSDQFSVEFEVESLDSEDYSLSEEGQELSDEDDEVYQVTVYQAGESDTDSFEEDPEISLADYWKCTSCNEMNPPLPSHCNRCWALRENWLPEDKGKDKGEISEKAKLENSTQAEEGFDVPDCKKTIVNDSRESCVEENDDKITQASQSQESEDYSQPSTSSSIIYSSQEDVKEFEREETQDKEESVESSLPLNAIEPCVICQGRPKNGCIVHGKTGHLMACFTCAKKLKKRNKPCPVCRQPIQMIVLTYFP

A word on the IC50: it is the concentration that inhibits the measured activity by half. `CCC[C@@H](C)[C@H](O)[C@H](C)[C@@H](O)[C@@H](C)[C@H](Cc1nc(C2=N[C@@](C)(C3=N[C@@](C)(C(=O)N[C@H]([C@@H](O)[C@@H](C)C(=O)O)[C@@H](C)CC)CS3)CS2)cs1)OC` [compound 1, hoiamide D] yielded an IC50 of 4.5 µM.
